What was measured:
[1] = Hepatocyte (Hep) intrinsic clearance, rat; format: in vitro ADME; settings: hepatocytes
[2] = Liver microsome (LM) intrinsic clearance, rat; format: in vitro ADME
[3] = biological target: adenosine A2A receptor (Homo sapiens (Human), UniProt P29274); assay: Adenosine receptor activity assay (Table 1), A2A activity; format: biochemical; settings: read-out: Ave A2A cAMP IC50
[4] = biological target: CYP2D6 (Homo sapiens (Human), UniProt P10635); assay: CYP450 inhibition at 10 μM, CYP2D6; format: in vitro ADME; settings: read-out: CYP 450 % INH @ 10 μM
[5] = Liver microsome (LM) intrinsic clearance, human; format: in vitro ADME
[6] = biological target: CYP3A4 (Homo sapiens (Human), UniProt P08684); assay: CYP450 inhibition at 10 μM, CYP3A4; format: in vitro ADME; settings: for inhibition at 10 µM: human, read-out: CYP 450 % INH @ 10 μM
[7] = biological target: adenosine A1 receptor (Homo sapiens (Human), UniProt P30542); assay: A1 cAMP IC50 assay (Table 1); format: biochemical
[8] = Hepatocyte (Hep) intrinsic clearance, human; format: in vitro ADME; settings: hepatocytes
[9] = biological target: adenosine A3 receptor (Homo sapiens (Human), UniProt P0DMS8); assay: A3 cAMP IC50 assay (Table 1); format: biochemical
[10] = biological target: adenosine A2B receptor (Homo sapiens (Human), UniProt P29275); assay: Adenosine receptor activity assay (Table 1), A2B activity; format: biochemical; settings: for Ratio: A2A activity to A2B activity (A2A/A2B); for IC50: read-out: Ave A2B cAMP IC50
Chain of adenosine A2B receptor (P29275 whole entry): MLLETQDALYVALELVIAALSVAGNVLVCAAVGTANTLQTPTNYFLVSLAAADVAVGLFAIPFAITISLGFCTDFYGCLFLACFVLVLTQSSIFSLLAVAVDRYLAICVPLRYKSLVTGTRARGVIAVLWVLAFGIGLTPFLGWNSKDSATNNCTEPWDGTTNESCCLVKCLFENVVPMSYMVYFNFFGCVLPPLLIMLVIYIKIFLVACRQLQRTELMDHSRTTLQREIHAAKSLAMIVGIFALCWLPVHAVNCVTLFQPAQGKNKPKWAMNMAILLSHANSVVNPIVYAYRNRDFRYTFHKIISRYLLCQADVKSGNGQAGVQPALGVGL

Chain of CYP3A4 (P08684 whole entry): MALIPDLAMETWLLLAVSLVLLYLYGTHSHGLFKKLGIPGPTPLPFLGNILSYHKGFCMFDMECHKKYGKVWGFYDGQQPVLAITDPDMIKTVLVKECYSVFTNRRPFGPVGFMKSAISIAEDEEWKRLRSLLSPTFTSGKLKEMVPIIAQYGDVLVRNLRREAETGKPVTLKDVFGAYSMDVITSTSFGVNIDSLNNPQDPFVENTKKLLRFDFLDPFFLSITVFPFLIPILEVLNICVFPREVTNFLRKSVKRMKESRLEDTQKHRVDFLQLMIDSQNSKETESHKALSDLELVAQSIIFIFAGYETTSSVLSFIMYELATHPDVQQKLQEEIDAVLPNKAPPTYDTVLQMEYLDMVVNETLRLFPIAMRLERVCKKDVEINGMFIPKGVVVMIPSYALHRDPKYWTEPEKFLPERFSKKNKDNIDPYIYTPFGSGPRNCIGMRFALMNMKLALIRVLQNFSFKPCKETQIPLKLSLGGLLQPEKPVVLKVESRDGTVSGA
Chain of adenosine A2A receptor (P29274 whole entry): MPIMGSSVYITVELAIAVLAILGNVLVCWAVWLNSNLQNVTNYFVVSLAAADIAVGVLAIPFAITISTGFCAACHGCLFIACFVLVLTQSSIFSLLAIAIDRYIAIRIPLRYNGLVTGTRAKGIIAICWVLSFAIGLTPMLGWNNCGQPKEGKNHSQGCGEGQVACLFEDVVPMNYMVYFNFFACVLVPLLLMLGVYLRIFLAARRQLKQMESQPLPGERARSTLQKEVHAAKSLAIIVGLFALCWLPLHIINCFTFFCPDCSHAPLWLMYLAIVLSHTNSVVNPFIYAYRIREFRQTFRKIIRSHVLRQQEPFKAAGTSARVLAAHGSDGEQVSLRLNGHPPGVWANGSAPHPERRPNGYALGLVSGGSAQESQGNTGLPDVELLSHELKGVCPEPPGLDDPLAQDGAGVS
Chain of adenosine A3 receptor (P0DMS8 whole entry): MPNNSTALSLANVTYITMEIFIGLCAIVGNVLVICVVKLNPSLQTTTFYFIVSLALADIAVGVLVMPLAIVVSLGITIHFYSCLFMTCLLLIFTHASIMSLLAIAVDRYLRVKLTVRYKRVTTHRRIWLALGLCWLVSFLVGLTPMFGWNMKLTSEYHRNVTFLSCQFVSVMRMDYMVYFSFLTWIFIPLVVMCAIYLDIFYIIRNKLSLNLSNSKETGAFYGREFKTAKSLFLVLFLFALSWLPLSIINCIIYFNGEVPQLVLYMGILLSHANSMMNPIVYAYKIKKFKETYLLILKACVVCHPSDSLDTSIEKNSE
Chain of CYP2D6 (P10635 whole entry): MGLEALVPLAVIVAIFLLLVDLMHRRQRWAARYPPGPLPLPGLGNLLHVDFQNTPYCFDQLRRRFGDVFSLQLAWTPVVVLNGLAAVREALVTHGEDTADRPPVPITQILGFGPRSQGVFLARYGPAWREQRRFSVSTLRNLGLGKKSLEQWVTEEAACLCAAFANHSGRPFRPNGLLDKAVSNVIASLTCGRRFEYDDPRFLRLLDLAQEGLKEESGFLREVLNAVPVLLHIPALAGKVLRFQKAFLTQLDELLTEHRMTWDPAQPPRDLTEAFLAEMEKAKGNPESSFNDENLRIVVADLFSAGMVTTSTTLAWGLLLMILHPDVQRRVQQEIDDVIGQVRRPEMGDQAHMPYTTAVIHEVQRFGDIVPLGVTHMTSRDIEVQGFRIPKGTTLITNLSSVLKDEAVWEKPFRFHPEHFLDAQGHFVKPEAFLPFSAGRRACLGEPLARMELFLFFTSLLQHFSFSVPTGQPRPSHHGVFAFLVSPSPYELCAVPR
Chain of adenosine A1 receptor (P30542 whole entry): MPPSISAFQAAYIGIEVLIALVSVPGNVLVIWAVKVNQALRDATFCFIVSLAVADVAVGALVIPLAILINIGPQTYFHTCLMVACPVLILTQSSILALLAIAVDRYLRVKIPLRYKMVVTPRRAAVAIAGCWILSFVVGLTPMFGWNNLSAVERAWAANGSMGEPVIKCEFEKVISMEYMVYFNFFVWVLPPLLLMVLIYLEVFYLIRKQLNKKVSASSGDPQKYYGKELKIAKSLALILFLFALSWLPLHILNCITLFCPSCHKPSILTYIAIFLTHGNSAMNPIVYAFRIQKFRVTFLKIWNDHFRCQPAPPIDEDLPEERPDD

| SMILES | hepatocyte CLint [1] [µL/min/1e6 cells] | LM CLint [2] [μL/min/mg/protein] | IC50 [3] [µM] | inhibition at 10 µM [4] [%] | LM CLint [5] [μL/min/mg/protein] | inhibition at 10 µM [6] [%] | IC50 [7] [µM] | hepatocyte CLint [8] [µL/min/1e6 cells] | IC50 [9] [µM] | Ratio [10] | IC50 [10] [µM] | CYP3A4 IC50 [6] [µM] |
| --- | --- | --- | --- | --- | --- | --- | --- | --- | --- | --- | --- | --- |
| C[C@H](Nc1nc(C(=O)N2CCC2)c2sccc2n1)c1cccnc1 [Example Z2, (S)-Azetidin-1-yl(2-((1-(pyridin-3-yl)ethyl)amino)thieno[3,2-d]pyrimidin-4-yl)methanone] | 37.7 | 27.86 | 0.1 to 0.5 | 38 | 23.61 | 66 | > 0.5 | 9.27 | > 0.5 | 31.36 | < 0.01 |  |
| C[C@H](Nc1nc(C(=O)N2CC[C@@H](F)C2)c2sccc2n1)c1cccnc1 [Example Z8, ((R)-3-Fluoropyrrolidin-1-yl)(2-(((S)-1-(pyridin-3-yl)ethyl)amino)thieno[3,2-d]pyrimidin-4-yl)methanone] | 47.6 | 20.43 | 0.1 to 0.5 | 41 | 17.06 | 74 | > 0.5 | 7.75 | > 0.5 | 7.83 | 0.01 to 0.05 |  |
| C[C@H](Nc1nc(C(=O)N2CC[C@H](F)C2)c2sccc2n1)c1cccnc1 [Example Z9, ((S)-3-Fluoropyrrolidin-1-yl)(2-(((S)-1-(pyridin-3-yl)ethyl)amino)thieno[3,2-d]pyrimidin-4-yl)methanone] | 70.1 | 28.41 | 0.05 to 0.1 | 20 | 15.83 | 71 |  | 11.4 |  | 2.55 | 0.01 to 0.05 |  |
| COc1ccc(CNC(=O)c2nc(N[C@@H](C)c3ccccn3)nc3ccsc23)cn1 [Example Z16, (S)—N-((6-Methoxypyridin-3-yl)methyl)-2-((1-(pyridin-2-yl)ethyl)amino)thieno[3,2-d]pyrimidine-4-carboxamide] | 58.6 | 32.42 | 0.05 to 0.1 | 13 | 17.68 | 46 | > 0.5 | 14.5 | > 0.5 | 1.67 | 0.01 to 0.05 |  |
| CO[C@H]1CCN(C(=O)c2nc(N[C@@H](C)c3cccnc3)nc3ccsc23)C1 [Example Z18, ((S)-3-Methoxypyrrolidin-1-yl)(2-(((S)-1-(pyridin-3-yl)ethyl)amino)thieno[3,2-d]pyrimidin-4-yl)methanone] | 68.4 | 44.15 | 0.05 to 0.1 | 44 | 14.28 | 52 | > 0.5 | 12.3 | > 0.5 | 0.88 | 0.05 to 0.1 |  |
| CO[C@@H]1CCN(C(=O)c2nc(N[C@@H](C)c3cccnc3)nc3ccsc23)C1 [Example Z19, ((R)-3-Methoxypyrrolidin-1-yl)(2-(((S)-1-(pyridin-3-yl)ethyl)amino)thieno[3,2-d]pyrimidin-4-yl)methanone] | 83.4 | 63.06 | 0.01 to 0.05 | 51 | 17.60 | 42 | > 0.5 | 12.9 | 0.05 to 0.1 | 1.37 | 0.01 to 0.05 |  |
| O=C(c1nc(NCc2cncc(F)c2)nc2ccsc12)N1CCCC1 [Example Z21, (2-(((5-Fluoropyridin-3-yl)methyl)amino)thieno[3,2-d]pyrimidin-4-yl)(pyrrolidin-1-yl)methanone] | 71.2 | 89.01 | 0.1 to 0.5 | 4 | 43.24 | 45 |  | 23.1 |  |  |  | 12.4 |
| C[C@H](Nc1nc(C(=O)N2CC[C@@H](O)C2)c2sccc2n1)c1cccnc1 [Example Z29, ((R)-3-Hydroxypyrrolidin-1-yl)(2-(((S)-1-(pyridin-3-yl)ethyl)amino)thieno[3,2-d]pyrimidin-4-yl)methanone] | 44 | 9.22 | > 0.5 | 16 | 4.28 | 26 | > 0.5 | 4.27 | > 0.5 | 24.95 | 0.05 to 0.1 |  |
| Cc1cncc(CNc2nc(C(=O)N3CCCC3)c3sccc3n2)c1 [Example Z50, (2-(((5-Methylpyridin-3-yl)methyl)amino)thieno[3,2-d]pyrimidin-4-yl)(pyrrolidin-1-yl)methanone] | 149 | 129.90 | > 0.5 | 32 | 126.01 | 79 |  | 49 |  | 5.23 | 0.01 to 0.05 |  |
| C[C@H](Nc1nc(C(=O)N2CC[C@H](F)C2)c2sccc2n1)c1ccccn1 [Example Z53, ((S)-3-Fluoropyrrolidin-1-yl)(2-(((S)-1-(pyridin-2-yl)ethyl)amino)thieno[3,2-d]pyrimidin-4-yl)methanone] | 42.7 | 14.92 | 0.05 to 0.1 | 0 | 13.51 | 10 |  | 10.9 |  | 7.15 | < 0.01 |  |
| O=C(c1nc(NCc2cncc(F)c2)nc2ccsc12)N1CC[C@@H](O)C1 [Example Z66, (R)-(2-(((5-Fluoropyridin-3-yl)methyl)amino)thieno[3,2-d]pyrimidin-4-yl)(3-hydroxypyrrolidin-1-yl)methanone] | 21.2 | 14.07 | 0.1 to 0.5 | 4 | 16.45 | 24 |  | 7.1 |  | 15.71 | 0.01 to 0.05 |  |
| O=C(c1nc(NCc2cncc(F)c2)nc2ccsc12)N1CC(O)C1 [Example Z109, (2-(((5-Fluoropyridin-3-yl)methyl)amino)thieno[3,2-d]pyrimidin-4-yl)(3-hydroxyazetidin-1-yl)methanone] | 19.9 |  | > 0.5 |  |  | 28.4 | > 0.5 | 4.11 | > 0.5 | 68.08 | < 0.01 |  |
| CCNC(=O)c1nc(N[C@@H](C)c2ccccn2)nc2ccsc12 [Example Z111, (S)—N-Ethyl-2-((1-(pyridin-2-yl)ethyl)amino)thieno[3,2-d]pyrimidine-4-carboxamide] | 45.4 |  | 0.05 to 0.1 |  |  | 19.9 | > 0.5 | 8.64 | > 0.5 | 15.70 | < 0.01 |  |
| COC1CN(C(=O)c2nc(NCc3cncc(F)c3)nc3ccsc23)C1 [Example Z115, (2-(((5-Fluoropyridin-3-yl)methyl)amino)thieno[3,2-d]pyrimidin-4-yl)(3-methoxyazetidin-1-yl)methanone] | 51.7 |  | 0.1 to 0.5 |  |  | 75 | > 0.5 | 13.9 | > 0.5 | 71.92 | < 0.01 |  |
| O=C(NCCO)c1nc(NCc2cncc(F)c2)nc2ccsc12 [Example Z123, 2-(((5-Fluoropyridin-3-yl)methyl)amino)-N-(2-hydroxyethyl)thieno[3,2-d]pyrimidine-4-carboxamide] | 22 |  | > 0.5 |  |  | 76.5 | > 0.5 | 5.54 | > 0.5 | 42.97 | 0.01 to 0.05 |  |
| C[C@H](Nc1nc(C(=O)N2CCCC2)c2sccc2n1)c1cccc(F)c1 [Example Z125, (S)-(2-((1-(3-Fluorophenyl)ethyl)amino)thieno[3,2-d]pyrimidin-4-yl)(pyrrolidin-1-yl)methanone] | 144 |  | 0.1 to 0.5 |  |  | -50.9 | > 0.5 | 42.8 | > 0.5 | 15.42 | < 0.01 |  |
| C[C@H](Nc1nc(C(=O)N2CCCC2)c2sccc2n1)c1cncc(F)c1 [Example Z134, (S)-(2-((1-(5-Fluoropyridin-3-yl)ethyl)amino)thieno[3,2-d]pyrimidin-4-yl)(pyrrolidin-1-yl)methanone] | 72.9 |  | 0.1 to 0.5 |  |  | 62.7 | > 0.5 | 17.9 | > 0.5 | 72.09 | < 0.01 |  |
